How the values were obtained:
[1] = target: proteasome (Homo sapiens, UniProt P28072+P28074+Q99436); test: Efficacy against the proteasome relative to the parent inhibitor; assay type: biochemical
Excerpt: We next tested the potency and selectivity of iBEp relative to Epoxomicin. Epoxomicin covalently and irreversibly binds the catalytic β subunits of the proteasome-therefore, the biotin moiety on iBEp serves as a tracer to detect whether proteasomes are inhibited by monitoring biotin signal on an SDS-PAGE gel (83, 87-89). […] This is supported by previous data that modification of the non-reactive end of epoxomicin has been shown not to change the selectivity of Epoxomicin for the proteasome (83, 87-89). […] We therefore chose doses of inhibitor where the effective concentration of the inhibitor was similar to previous studies using Epoxomicin alone and well within the acceptable range of efficacy given how potent Epoxomicin is as a proteasome inhibitor.
Many of our experiments rely on the use of iBEp because the biotin tracer on an irreversible and specific inhibitor allows us to track which proteasomes are inhibited. However, we wanted to validate our findings using a proteasome inhibitor with a distinct mechanism of action from Epoxomicin. We therefore modified MG132, a reversible peptide aldehyde proteasome inhibitor, with a sulfonated biotin linker on the nonreactive N-terminus (84). […] Instead, we turned to cellular and functional readouts of permeability. […]

[2] = system: human Tau; test: Sarkosyl fractionation and Tau immunoblot, hTau-KI primary cortical neurons; assay type: cell-based; conditions: 1 μM, 12 hours, vs DMSO
Excerpt: (FIG. 5A) Effect of neuroproteasome-specific inhibitor iBEp on Tau aggregation in primary neurons. […] Quantification of soluble and insoluble murine Tau (mTau) intensities normalized to soluble GAPDH. […] (FIG. 5B) Effect of neuroproteasome inhibition on aggregation of human Tau (hTau). […] (FIG. 5C) Generation of reversible neuroproteasome inhibitors to test effects of neuroproteasome inhibition. (Top) Structure of Sulfo-MG132 (SulfoMG). […] (FIG. 5D) Effect of reversible neuroproteasome inhibition using SulfoMG on Tau aggregation. […] Quantification of soluble and insoluble Tau intensities were normalized to soluble GAPDH. Data (right) are mean±SEM normalized respective to DMSO controls. […] (FIG. 5E) Testing iBEp permeability in vivo. […] 72 hours post injection, hippocampi were isolated and subjected to membrane fractionation without detergent. […] (FIG. 5F) Effect of neuroproteasome inhibition on Tau aggregation in vivo.

Sulfo-MG132 [SulfoMG]
efficacy against the proteasome relative to the parent inhibitor [1]: significant inhibition of proteasomes using SulfoMG despite the moderate loss of efficacy compared to MG132
sarkosyl-insoluble Tau, hTau-KI neurons [2]: induces similar partitioning of hTau into the sarkosyl-insoluble fraction as iBEp
